Experimental data taken from PMC10675071, “Identification of Crocetin as a Dual Agonist of GPR40 and GPR120 Responsible for the Antidiabetic Effect of Saffron” (Nutrients, 2023).
One block for each compound: values may come before it.

Columns and labels:
Type in all cases: cell-based
[1] = molecular target: T1, GPR40 (Homo sapiens, UniProt O14842); assay: SRE-luciferase (Gq) reporter assay, CHO cells
T1 construct: gene FFAR1; plasmid of untold source and species, transiently cotransfected with SRE-Luc or CRE-Luc in CHO-K1 cells

[2] = molecular target: T1, GPR40; assay: SRE-luciferase (Gq) reporter assay, CHO cells, dose-response curve; conditions: agonist
[3] = molecular target: T1, GPR40; assay: SRE-luciferase (Gq) reporter assay, CHO cells; conditions: 24 h, 37 °C

T1 sequence (O14842 whole entry): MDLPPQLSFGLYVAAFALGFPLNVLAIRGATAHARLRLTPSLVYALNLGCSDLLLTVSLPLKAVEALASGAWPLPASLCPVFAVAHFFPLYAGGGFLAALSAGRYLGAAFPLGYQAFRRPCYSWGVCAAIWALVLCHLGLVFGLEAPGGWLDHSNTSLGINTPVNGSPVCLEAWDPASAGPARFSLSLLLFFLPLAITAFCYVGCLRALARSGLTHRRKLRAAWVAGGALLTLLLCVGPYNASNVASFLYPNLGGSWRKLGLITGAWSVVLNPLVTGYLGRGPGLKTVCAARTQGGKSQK

EC50 [1]: 2910 ± 320 nM
Compound: CC(/C=C/C=C(\C)C(=O)O)=C\C=C\C=C(C)\C=C\C=C(/C)C(=O)O [crocetin]

Compound: CCCCC/C=C\C/C=C\CCCCCCCC(=O)O [linoleic acid]
SRE-luciferase (Gq) reporter assay, CHO cells, dose-response curve [2]: increasing crocetin concentrations on dose−response curves of LA

Emax [3]: 6.00%
Compound: CC(/C=C/C=C(\C)C(=O)O[C@@H]1O[C@H](CO[C@@H]2O[C@H](CO)[C@@H](O)[C@H](O)[C@H]2O)[C@@H](O)[C@H](O)[C@H]1O)=C\C=C\C=C(C)\C=C\C=C(/C)C(=O)O[C@@H]1O[C@H](CO[C@@H]2O[C@H](CO)[C@@H](O)[C@H](O)[C@H]2O)[C@@H](O)[C@H](O)[C@H]1O [crocin]
